{"source": "patent US20260048155A1", "about": "“BIOCOMPATIBLE PARAHYDROGEN HYPERPOLARIZED SOLUTIONS BY PRECIPITATION AND RE-DISSOLUTION” (North Carolina State University, priority 2022, published 2026)", "key": {"[1]": {"test": "Lifetime (13C T1) of polarization in precipitated and aqueous samples", "format": "physicochemical", "settings": "for T1 in the aqueous phase after Re-D SABRE: N=2", "protocol": "To investigate the impact of precipitate relaxation in variable magnetic fields during the dissolution process, the Re-D SABRE experiment was repeated, omitting the addition of water after precipitation (i.e., the decay of ^13C HP signal in the dissolved phase of the precipitated samples was measured). […] For (iii), P13C was still much lower compared to the sample that rested at the 1.4 T magnet (setup iv), i.e., P13C=0.08±0.02% and P13C=3.4±0.9%, respectively—this signal is entirely derived from the remaining dissolved pyruvate in solution (2.3±0.6 mM in the 500 μL sample of EtAc and CH3OH, FIG. 17) not from the precipitated micro-crystalline phase. […] This observation is important because it means the Re-D SABRE process can be successfully performed at storage fields as low as 0.3 T. The rapid ^13C T1 of HP [1-^13C]pyruvate in the EtAc fraction at Earth's field, estimated to be <1.3 s, may be caused by the high catalyst: substrate ratio in the EtAc.\nHP signals from the sample before or after re-dissolution were measured as a function of an additional delay td (ranging from 0 to 23 s; t=tprec+td), during which P13C was allowed to decay. At the end of td, the signal was detected either immediately (green circles, FIG. 6D, sampling the decay rate of the residual dissolved-phase pyruvate) or after the dissolution with D2O (squares, FIG. 6D, sampling the decay rate of the entire pyruvate (precipitated and dissolved) pool). Assuming a mono-exponential decay, the apparent ^13C T1 was 7.0±0.4 s or 5.3±0.2 s, respectively. […] In sharp contrast, T1 values in the aqueous phase measured after the Re-D SABRE process were 41.6±0.3 s in H2O and 102±1.3 s in D2O, FIG. 6E, using a series of pulse-detect NMR experiments with low flip angle of 9° (N=2)."}, "[2]": {"test": "Re-dissolution (Re-D) SABRE: precipitation with ethyl acetate, re-dissolution in water, phase separation at different magnetic fields", "format": "physicochemical", "protocol": "To investigate the precipitation and re-dissolution of HP [1-^13C]pyruvate, a phase separation approach was applied, FIGS. 5A-5B. To this end, the fact that water and EtAc are immiscible was exploited to modify the setup and procedure accordingly. In this approach, the precipitation was performed in the same NMR tube where hyperpolarization took place. 400 μL EtAc were added quickly to the sample consisting of 100 μL of 30 mM HP [1-^13C]pyruvate, right after removing this sample from the 0.4 μT field and releasing the pressure (≈3-4 s). To mix the solution after EtAc addition, further p-H2 bubbling was used at a low flow rate (˜5-10 scc/m, ambient pressure), FIGS. 5A-5B. For re-dissolution, 300 μL water were added directly to the NMR tube with the precipitate-containing solution, and again, gas flow was used to mix and dissolve the pyruvate microcrystals. After mixing the solutions, most of the aqueous phase rapidly separated from the organic phase (≈1 s). Typical precipitation time was tprec≈2 s and water addition time twater≈6 s, where twater consisted of 1 s to add water, plus 4 s to bubble gas, and 1 s to settle the solution, FIGS. 5A-5B (see FIG. 17 for more information). […] Using this protocol, the obtained two-phase samples visibly contained a major fraction of the catalyst in the organic phase (which remained yellowish and turned reddish after exposure to atmosphere, FIG. 15), whereas a clear aqueous solution of total volume of ≈335±10 μL was obtained (as detailed below approximately half of the CH3OH remained in the aqueous phase), FIGS. 14A-14B. The total volumes of the investigated mixtures containing the precipitate were approximately 500 μL (3.9 cm fill height in the NMR tube), and after the addition of water the total fluid volume was ≈800 μL (≈6 cm fill height). During the phase mixing, parts of the sample were lifted by approximately 5 cm by the ascending p-H2 gas bubbles. The sample height in the NMR tube was the decisive factor affecting the choice of solvent volumes to minimize the mixtures from leaving the 1.4 T field of the benchtop NMR spectrometer (approximately 10 cm along the sample tube) as much as possible. […] These limitations are clear shortcomings of the current experimental design and can be remedied in the future with purpose-built hyperpolarization equipment.\nThis separation approach was investigated at 4 different magnetic fields: (i) Earth's field; (ii) 10 mT; (iii) 0.3 T; and (iv) 1.4 T, FIGS. 6A-6B. More details on the experiment setups are reported in the SI. Re-D SABRE was performed at (i)-(iv), and the samples were then rapidly transferred to the benchtop 1.4 T NMR, such that the aqueous phase was approximately centered in the radiofrequency coil. In case (iv), for which no transfer was needed, a ≈5-s delay was added to the end of the protocol for consistency with the time needed to transfer the samples in (i-iii).\nThe detection and quantification of hyperpolarization took place at 1.4 T in all cases.\nA more rigorous phase mixing protocol was tested, where the bubbling tube was moved up and down rapidly three times for phase mixing during the twater≈6 s mixing time. […] Considering the final volume of the aqueous phase of 335±10 μL and the measured pyruvate concentration of 5.8±0.8 mM (in the diluted Re-D SABRE sample), the detected ^13C signals corresponded to a nuclear polarization of P13C=9±1% or 8±1%, i.e., ε13C of ≈75,000 at 1.4 T, respectively, N=2 samples, FIGS. 7A-8B. […]"}, "[3]": {"settings": "30 mM pyruvate, prior SABRE-SHEATH work (background); cited from earlier work"}}}
{"compound": "CC(=O)[13C](=O)O", "note": "[[1-^13C]pyruvate]", "values": [{"measurement": "T1 in the aqueous phase after Re-D SABRE", "setting": "[1]; D2O, 1.4 T", "value": "102 ± 1.3", "unit": "s"}, {"measurement": "13C T1 in the EtAc fraction", "setting": "[1]; Earth's field, estimated", "value": "< 1.3", "unit": "s"}, {"measurement": "T1 in the aqueous phase after Re-D SABRE", "setting": "[1]; H2O, 1.4 T", "value": "41.6 ± 0.3", "unit": "s"}, {"measurement": "apparent 13C T1, entire pyruvate (precipitated and dissolved) pool", "setting": "[1]; precipitated sample, 1.4 T, detected after dissolution with D2O", "value": "5.3 ± 0.2", "unit": "s"}, {"measurement": "apparent 13C T1, residual dissolved-phase pyruvate", "setting": "[1]; precipitated sample, 1.4 T, detected immediately, mono-exponential", "value": "7.0 ± 0.4", "unit": "s"}, {"measurement": "ε13C after Re-D SABRE", "setting": "[2]; aqueous phase, at 1.4 T", "value": "≈ 75,000"}, {"measurement": "P13C after Re-D SABRE", "setting": "[2]; precipitation and re-dissolution at 0.3 T, N=2, aqueous phase", "value": "4.0±0.8", "unit": "%"}, {"measurement": "P13C after Re-D SABRE", "setting": "[2]; precipitation and re-dissolution at 1.4 T, N=3, aqueous phase", "value": "3.6±0.6", "unit": "%"}, {"measurement": "P13C after Re-D SABRE", "setting": "[2]; precipitation and re-dissolution at 10 mT, aqueous phase, detected at 1.4 T", "value": "0.05±0.02", "unit": "%"}, {"measurement": "HP 13C signal after Re-D SABRE", "setting": "[2]; precipitation and re-dissolution at Earth's field, detected at 1.4 T", "value": "No HP ^13C signal was observed"}, {"measurement": "P13C in the free state", "setting": "[3]", "value": 13, "unit": "%"}]}
